15 compounds from patent US20160194336A1, “P38 MAPK INHIBITORS FOR THE TREATMENT OF INFLAMMATORY DISEASES” (ALLINKY BIOPHARMA, priority 2012, published 2016) can be followed below.

SMILES strings stand for the structures.

For one series, the target named is T1, p38αR189A (Homo sapiens, UniProt Q16539, R189A).
T1 construct: made in house; host or cells: E. coli XL10-Gold
Description: site-mutated p38 phosphorylation cascade assay, R189A mutant. The series is classed as biochemical. To be noted: compound 10 uM. On the procedure: (§1) After preincubation, MKK6 (ProQinase), ATF2 (ProQinase) and ATP were added to a final concentration of 10 nM, 5 μM and 10 μM respectively, then incubated 40 minutes at 30° C. and analyzed with ADP-Glo™.
(§2) Replacement of specific residues arginine 186 and 189 of p38α (pGEX4T-1-p38α) for alanine was performed with the QuikChange Lightining Site-Directed Mutagenesis Kit (Agilent Technologies). The following oligonucleotides were used for the arginine 186 to alanine substitution: forward primer: 5′-SEQ ID NO 7-3′; reverse primer: 5′-SEQ ID NO 8-3′. Oligonucleotides used for the arginine 189 to alanine substitution were: forward primer: 5′-SEQ ID NO 9-3′; reverse primer: 5′-SEQ ID NO 10-3′. Mutations were validated by sequencing (Genomic Unit, Parque Cientifico de Madrid). E. coli XL10-Gold ultracompentent cells (Agilent Technologies) were transformed with the vector plasmids containing p38αWT and mutants. For the expression of recombinant p38α transformed cells were cultured overnight at 37° C. in 50 ml of fresh LB medium containing ampicillin (100 μg/ml). After that, culture was diluted in fresh LB to A595=0.4 and grown for approximately 1 h at 37° C. until exponential growth and then induced with Isopropyl-β-D-thiogalactopyranoside (IPTG) 1 mM for 5 h. The cells were collected by centrifugation and cell pellet were resuspended in 50 ml of cold lysis buffer: PBS pH 7.4, EDTA 10 mM, PMSF 1 mM, Benzamidine 0.2 mM, DTT 5 mM, Triton X-100 1% and Lysozyme 1 mg/ml. The soluble and insoluble fractions were separated by centrifugation (16,000 g for 20 min). The soluble fraction was incubated for 2 hours with 1 ml of pre-equilibrated Glutathione Sepharose 4B (GE Healthcare) and the resin was extensively washed in a column with 200 ml of binding buffer: PBS, PMSF 1 mM and benzamidine 0.2 mM. Proteins were eluted with 1 ml of Tris-HCl 50 mM pH 8.0 and reduced glutathione 20 mM. 20% glycerol was added to purified proteins and stored at −80° C. Protein concentration and purity was assessed by SDS-PAGE. Kinase activity was measured by ADP-glo kit using MKK6 as activator and ATF2 as substrate. Activity recorded for p38αR186A and p38αR189A were 15.5% and 4.8%, respectively (n=4) related to wild type protein.

The next series concerns the target T2, p38αR186A (Homo sapiens, UniProt Q16539, R186A).
T2 construct: made in house; host or cells: E. coli XL10-Gold
Description: site-mutated p38 phosphorylation cascade assay, R186A mutant. To be noted: compound 10 uM. The class given is biochemical. On the procedure: as §1, §2

Another series relates to THP-1 cells. Description: survival of monocytes with LPS. The class given is cell-based, human.
Another series has as its target T3, p38alpha wt (Homo sapiens, UniProt Q16539).
T3 construct: made in house; host or cells: E. coli XL10-Gold
Description: site-mutated p38 phosphorylation cascade assay, wild type. To be noted: compound 10 uM. The series is classed as biochemical. As for the experimental part:
as §1, §2

In series [1] the test system is TNF-α secretion, THP-1 cells. Description: Inhibition of TNF-α secretion by LPS-stimulated THP-1. The class given is cell-based. To be noted: Homo sapiens, THP-1, 3 h, monocytes with LPS, read-out: TNF abetment. As for the experimental part: Inhibition of TNF-α Secretion by a Human Monocytic Cell Line, THP-1.
THP-1 cells, growing in log phase, were collected by centrifugation and resuspended in RPMI 1640 (Sigma Aldrich), to a final cell concentration of 2×10^6 cells/ml. Cells were plated into 24-well plates (BD Biosciences). Dilutions of compounds in dimethyl sulfoxide (DMSO) were added to the culture to a final concentration M. The final DMSO concentration was 0.5%. The cells […] suspensions were preincubated with compounds for 1 h at 37° C. in a 5% C02 humidified atmosphere before the addition of LPS (Sigma Aldrich, L2654) to a final concentration of 2 μg/ml. After that, cells were incubated for 3 h followed by centrifugation to pellet cells. Cell supernatants were stored at 4° C. until Human analysis for TNF-α content. TNF-α levels were determined by ELISA (TNF Biotrak, GE Healthcare) following the manufacturer's directions. The percentage inhibition was calculated for each compound concentration tested, and the IC50 was calculated for each compound.

T3 sequence (Q16539 whole entry): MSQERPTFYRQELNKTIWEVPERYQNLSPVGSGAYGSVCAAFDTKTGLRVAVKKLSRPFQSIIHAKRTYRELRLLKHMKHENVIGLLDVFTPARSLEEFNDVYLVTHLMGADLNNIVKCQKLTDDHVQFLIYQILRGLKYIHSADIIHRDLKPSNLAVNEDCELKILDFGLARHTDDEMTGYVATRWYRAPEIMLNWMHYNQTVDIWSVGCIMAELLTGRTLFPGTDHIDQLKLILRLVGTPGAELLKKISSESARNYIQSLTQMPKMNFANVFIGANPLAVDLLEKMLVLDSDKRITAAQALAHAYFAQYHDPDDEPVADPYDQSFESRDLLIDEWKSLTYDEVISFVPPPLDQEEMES
T2 sequence (Q16539 whole entry R186A): as the sequence (Q16539 whole entry) above, with R186A counted along it
T1 sequence (Q16539 whole entry R189A): as the sequence (Q16539 whole entry) above, with R189A counted along it

Turning to `CCOC(=O)c1ccc(Nc2nc3nonc3nc2NN=Cc2cccc3ccccc23)cc1` [Compound 12], the inhibition at 10 µM was 14% against p38αR189A, 39% against p38αR186A, 81% at p38alpha wt and -16% in series [1]. The Cell survival in the series with THP-1 cells (1 uM) worked out at 97%; in the series on THP-1 cells (10 uM) it was 99%. For the same compound, the inhibition at 1 µM in series [1] was -6%.
As to `CCOC(=O)c1ccc(Nc2nc3nonc3nc2N2CCN(Cc3cccc(Cl)c3)CC2)cc1` [Compound 13], the inhibition at 10 µM turned out to be 14% against p38αR189A, 22% against p38αR186A, 34% against p38alpha wt and 32% in series [1]. The Cell survival with THP-1 cells (1 uM) stood at 93%; in the series with THP-1 cells (10 uM) it was 86%. In addition, the inhibition at 1 µM in series [1] turned out to be 13%.
Regarding `CCOC(=O)c1ccc(Nc2nc3nonc3nc2N2CCN(Cc3ccccc3C)CC2)cc1` [Compound 14], the inhibition at 10 µM stood at 17% at p38αR189A, 18% against p38αR186A, 31% against p38alpha wt and 17% in series [1]. In the series with THP-1 cells (10 uM), this compound gave a Cell survival of 81%.
In the case of `CCOC(=O)c1ccc(Nc2nc3nonc3nc2N2CCC(Sc3ccc(C)cc3)CC2)cc1` [Compound 15], the inhibition at 10 µM against p38αR189A was determined as 20%; at p38αR186A, 28%; against p38alpha wt, 61%; in series [1], 32%. Besides, the Cell survival is 92% in the series on THP-1 cells (1 uM) and 97% in the series on THP-1 cells (10 uM). Moreover, the inhibition at 1 µM in series [1] was 17%.
As to `CCOC(=O)c1ccc(Nc2nc3nonc3nc2N2CCC(Oc3ccccc3OC)CC2)cc1` [Compound 16], the inhibition at 10 µM against p38αR189A stood at 17%; against p38αR186A it was 15%; against p38alpha wt, 32%; in series [1], 35%. Further, the Cell survival in the series on THP-1 cells (0.1 uM) is given as 88%; in the series on THP-1 cells (1 uM), 95%; in the series on THP-1 cells (10 uM), 93%. Further, the inhibition at 0.1 µM in series [1] amounted to 16%. Further, in series [1], the inhibition at 1 µM was 26%.
Regarding `CCOC(=O)c1ccc(Nc2nc3nonc3nc2N2CCC(C(=O)c3ccccc3)CC2)cc1` [Compound 17], the inhibition at 10 µM against p38αR189A was found to be 13%; against p38αR186A it was 19%; on p38alpha wt, 56%; in series [1] it was 69%. Moreover, the results for the Cell survival in the series on THP-1 cells (0.1 uM), with THP-1 cells (1 uM) and in the series on THP-1 cells (10 uM) were 99%, 98% and 97%, respectively. Moreover, the inhibition at 0.1 µM in series [1] stood at 21%. Also, in series [1], the inhibition at 1 µM is 34%.
As to `CC(C)NC(=O)c1ccc(Nc2nc3nonc3nc2N2CCC(Cc3ccccc3)CC2)cc1` [Compound 18], the inhibition at 10 µM was 33% against p38αR189A, 37% on p38αR186A, 62% at p38alpha wt and 56% in series [1]. Further, the results for the Cell survival in the series on THP-1 cells (0.1 uM), with THP-1 cells (1 uM) and in the series with THP-1 cells (10 uM) were 90%, 83% and 79%, respectively. Further, the inhibition at 0.1 µM in series [1] was found to be 1%. Moreover, in series [1], the inhibition at 1 µM turned out to be 34%.
As to `CCCNC(=O)c1ccc(Nc2nc3nonc3nc2N2CCC(Cc3ccccc3)CC2)cc1` [Compound 19], the inhibition at 10 µM is 32% on p38αR189A, 35% against p38αR186A, 71% against p38alpha wt and -10% in series [1]. Besides, the Cell survival in the series with THP-1 cells (0.1 uM) was found to be 103%; with THP-1 cells (1 uM) it was 97%; with THP-1 cells (10 uM), 93%. Besides, in series [1], the inhibition at 0.1 µM was -47%. Further, in series [1], the inhibition at 1 µM is -21%.
`CC(C)NC(=O)c1cccc(Nc2nc3nonc3nc2N2CCC(Cc3ccccc3)CC2)c1` [Compound 20]: the inhibition at 10 µM was 22% at p38αR189A, 38% against p38αR186A, 71% against p38alpha wt and 36% in series [1]. In addition, the Cell survival in the series with THP-1 cells (0.1 uM) is reported as 101%; with THP-1 cells (1 uM), 96%; in the series with THP-1 cells (10 uM), 81%. The inhibition at 0.1 µM in series [1] was -9%. Further, the inhibition at 1 µM in series [1] was 55%.
Regarding `Cc1cc(C(=O)NCC(C)C)ccc1Nc1nc2nonc2nc1N1CCC(Cc2ccccc2)CC1` [Compound 21], the inhibition at 10 µM on p38αR189A is 38%; against p38αR186A, 48%; against p38alpha wt it was 83%; in series [1] it was 20%. The results for the Cell survival in the series with THP-1 cells (0.1 uM), in the series with THP-1 cells (1 uM) and in the series on THP-1 cells (10 uM) were 98%, 95% and 94%, respectively. Besides, the inhibition at 0.1 µM in series [1] is -15%. Besides, the inhibition at 1 µM in series [1] amounted to 18%.
With `Cc1ccc(SC2CCN(c3nc4nonc4nc3-c3cccc(C(=O)OC(C)C)c3)CC2)cc1` [Compound 22], the inhibition at 10 µM came out at 6% on p38αR189A, 16% on p38αR186A, 31% against p38alpha wt and 10% in series [1]. Besides, the Cell survival is 97% in the series with THP-1 cells (0.1 uM), 94% in the series with THP-1 cells (1 uM) and 99% with THP-1 cells (10 uM). For the same compound, the inhibition at 0.1 µM in series [1] was -2%. Moreover, the inhibition at 1 µM in series [1] turned out to be 17%.
Take `CCCNC(=O)c1ccc(Nc2nc3nonc3nc2N2CCC(Sc3ccc(C)cc3)CC2)cc1` [Compound 23]: the inhibition at 10 µM on p38αR189A was 26%; against p38αR186A, 48%; at p38alpha wt it was 90%; in series [1] it was 60%. For the same compound, the Cell survival with THP-1 cells (0.1 uM) turned out to be 96%; in the series on THP-1 cells (1 uM), 95%; with THP-1 cells (10 uM), 88%. Besides, the inhibition at 0.1 µM in series [1] was 26%. In addition, in series [1], the inhibition at 1 µM was 41%.
As for `CCOC(=O)c1ccc(NNc2nc3nonc3nc2N2CCC(Cc3ccccc3)CC2)cc1` [Compound 24], the inhibition at 10 µM against p38αR189A is 39%; against p38αR186A, 43%; at p38alpha wt, 66%; in series [1], 67%. For the same compound, the figures for the Cell survival in the series on THP-1 cells (0.1 uM), with THP-1 cells (1 uM) and in the series with THP-1 cells (10 uM) were 104%, 98% and 105%, respectively. Further, the inhibition at 0.1 µM in series [1] was -23%. Also, the inhibition at 1 µM in series [1] is 12%.
In the case of `CCOC(=O)c1ccc(Nc2nc3nonc3nc2N2CCC(Oc3ccc(Cl)cc3)CC2)cc1` [Compound 25], the inhibition at 10 µM against p38αR189A is 30%; on p38αR186A, 14%; at p38alpha wt, 59%; in series [1], 102%. Further, the Cell survival with THP-1 cells (0.1 uM) turned out to be 88%; in the series on THP-1 cells (1 uM) it was 61%; with THP-1 cells (10 uM), 42%. The inhibition at 0.1 µM in series [1] is 12%. Further, the inhibition at 1 µM in series [1] amounted to 61%.
Turning to `CCOC(=O)c1ccc(Nc2nc3nonc3nc2Nc2ccc(C(=O)c3ccccc3)cc2)cc1` [Compound 26], the inhibition at 10 µM against p38αR189A is 28%; on p38αR186A, 40%; against p38alpha wt it was 73%; in series [1], 8%. Further, the figures for the Cell survival in the series on THP-1 cells (0.1 uM), with THP-1 cells (1 uM) and in the series on THP-1 cells (10 uM) were 86%, 87% and 83%, respectively. Moreover, the inhibition at 0.1 µM in series [1] stood at 27%. Further, the inhibition at 1 µM in series [1] was found to be 30%.
